Data: patent US20070213326A1, “SUBSTITUTED INDOLE COMPOUNDS AND THEIR USE AS 5-HT6 RECEPTOR MODULATORS” (LABORATORIOS DEL DR. ESTEVE S.A., priority 2004, published 2007)
Where a name gives a salt, the structure may show the parent alone.

Legend:
[1] = target: T1, 5HT6-human recombinant receptor (Homo sapiens, UniProt P50406); test: Binding to serotonin receptor 5-HT6 ([H]-LSD radioligand, HEK-293 cell membranes); conditions: membranes of HEK-293 cells expressing 5HT6-human recombinant receptor; [H]-LSD 2.7 nM; 60 minutes at 37° C.
T1 construct: purchased Receptor Biology; host or cells: HEK-293 cells (membranes)
Method: I) Binding to Serotonin Receptor 5-HT6
Cell membranes of HEK-293 cells expressing the 5HT6-human recombinant receptor were supplied by Receptor Biology. In said membranes the receptor concentration is 2.18 pmol/mg protein and the protein concentration is 9.17 mg/ml. The experimental protocol follows the method of B. L. Roth et al. [B. L. Roth, S. C. Craigo, M. S. Choudhary, A. Uluer, F. J. Monsma, Y. Shen, H. Y. Meltzer, D. R. Sibley: Binding of Typical and Atypical Antipsychotic Agents to 5-Hydroxytryptamine-6 and Hydroxytryptamine-7 Receptors. The Journal of Pharmacology and Experimental Therapeutics, 1994, 268, 1403] with the following slight changes. The respective part of the literature description is hereby incorporated by reference and forms part of the disclosure.
The commercial membrane is diluted (1:40 dilution) with the binding buffer: 50 mM Tris-HCl, 10 mM MgCl2, 0.5 mM EDTA (pH 7.4). The radioligand used is [H]-LSD at a concentration of 2.7 nM with a final volume of 200 μl. Incubation is initiated by adding 100 μl of membrane suspension, (≈22.9 μg membrane protein), and is prolonged for 60 minutes at a temperature of 37° C. The incubation is ended by fast filtration in a Brandel Cell Harvester through fiber glass filters made by Schleicher & Schuell G F 3362 pretreated with a solution of polyethylenimine at 0.5%. The filters are washed three times with three milliliters of buffer Tris-HCl 50 mM pH 7.4. The filters are transferred to flasks and 5 ml of Ecoscint H liquid scintillation cocktail are added to each flask. The flasks are allowed to reach equilibrium for several hours before counting with a Wallac Winspectral 1414 scintillation counter. Non-specific binding is determined in the presence of 100 μM of serotonin. Tests were made in triplicate. The inhibition constants (Ki, nM) were calculated by non-linear regression analysis using the program EBDA/LIGAND described in Munson and Rodbard, Analytical Biochemistry, 1980, 107, 220, the respective part of which is hereby incorporated by reference and forms part of the disclosure.
The binding of the substituted indole compounds to the 5-HT6 receptor was determined as described above.

T1 sequence (P50406 whole entry): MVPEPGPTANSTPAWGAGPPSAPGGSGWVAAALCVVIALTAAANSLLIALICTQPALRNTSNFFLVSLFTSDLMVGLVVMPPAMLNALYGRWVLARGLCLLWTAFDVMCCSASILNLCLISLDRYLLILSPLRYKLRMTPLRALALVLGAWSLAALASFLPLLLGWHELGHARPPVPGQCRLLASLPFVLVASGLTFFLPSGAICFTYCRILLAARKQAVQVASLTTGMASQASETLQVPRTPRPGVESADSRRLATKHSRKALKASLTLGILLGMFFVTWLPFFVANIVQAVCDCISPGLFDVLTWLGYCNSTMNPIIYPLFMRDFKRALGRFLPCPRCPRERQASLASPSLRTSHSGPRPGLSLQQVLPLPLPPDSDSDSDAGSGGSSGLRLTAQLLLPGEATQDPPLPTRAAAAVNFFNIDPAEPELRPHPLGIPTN

melting point	SMILES	Ki [1]
50 to 53 °C	CCN(CC)CCc1c[nH]c2cc(NS(=O)(=O)c3ccc(Oc4ccccc4)cc3)ccc12	–
198 to 200 °C	CN(C)CCc1c[nH]c2cccc(NS(=O)(=O)c3ccc4c(Cl)cccc4c3)c12	–
110 to 120 °C	Cc1c(S(=O)(=O)N(c2cccc3c(CCN(C)C)c[nH]c23)S(=O)(=O)c2sc3ccc(Cl)cc3c2C)sc2ccc(Cl)cc12	–
79 to 85 °C	CCN(CC)CCc1c[nH]c2cc(NS(=O)(=O)c3cc(Cl)cc(Cl)c3)ccc12	–
146 to 147 °C	CCN(CC)CCc1c[nH]c2cc(NS(=O)(=O)c3ccc4ccccc4c3)ccc12	–
187 to 188 °C	CN(C)CCc1c[nH]c2cc(N(S(=O)(=O)c3cc(Cl)c(Cl)s3)S(=O)(=O)c3cc(Cl)c(Cl)s3)ccc12	–
223 to 225 °C	CN(C)CCc1c[nH]c2cccc(NS(=O)(=O)c3cccc4ccccc34)c12	–
164 to 168 °C	CN(C)CCc1c[nH]c2cc(NS(=O)(=O)c3ccc(-c4ccccc4)cc3)ccc12	–
86 to 90 °C	CCN(CC)CCc1c[nH]c2cc(NS(=O)(=O)c3cccc4c(Cl)cccc34)ccc12	–
81 to 85 °C	CCN(CC)CCc1c[nH]c2cc(NS(=O)(=O)c3ccc(-c4ccccc4)cc3)ccc12	–
216 °C	CN(C)CCc1c[nH]c2cccc(NS(=O)(=O)c3c(Cl)nc4sccn34)c12	–
235 to 236 °C	Cc1c(S(=O)(=O)Nc2cccc3[nH]cc(CCN(C)C)c23)sc2ccc(Cl)cc12	–
212 to 215 °C	CN(C)CCc1c[nH]c2cccc(NS(=O)(=O)c3cc(Cl)cc(Cl)c3)c12	–
183 to 187 °C	CCN(CC)CCc1c[nH]c2cc(NS(=O)(=O)c3cccc4ccccc34)ccc12	–
79 to 84 °C	CCN(CC)CCc1c[nH]c2c(NS(=O)(=O)c3sc4ccc(Cl)cc4c3C)cccc12	–
78 to 82 °C	CN(C)CCc1c[nH]c2cccc(NS(=O)(=O)c3ccc(Oc4ccccc4)cc3)c12	–

melting point	SMILES	Ki [1]
200 to 205 °C	CCN(CC)CCc1c[nH]c2cc(NS(=O)(=O)c3cc(Cl)c(Cl)s3)ccc12	–
187 to 190 °C	CN(C)CCc1c[nH]c2cc(NS(=O)(=O)c3cccc4c(Cl)cccc34)ccc12	–
87 to 90 °C	CCN(CC)CCc1c[nH]c2c(N(S(=O)(=O)c3sc4ccc(Cl)cc4c3C)S(=O)(=O)c3sc4ccc(Cl)cc4c3C)cccc12	–
90 °C	CN(C)CCc1c[nH]c2cc(NS(=O)(=O)CCc3cccc4ccccc34)ccc12	–
145 °C	CCOC(CN(C)C)c1c[nH]c2c(NS(=O)(=O)c3sc4ccc(Cl)cc4c3C)cccc12 (stereo not shown)	–
111 to 114 °C	CN(C)CCc1c[nH]c2cc(NS(=O)(=O)c3cc(Cl)c(Cl)s3)ccc12	–
208 °C	CCOC(CN(C)C)c1c[nH]c2cc(N(S(=O)(=O)c3sc4ccc(Cl)cc4c3C)S(=O)(=O)c3sc4ccc(Cl)cc4c3C)ccc12 (stereo not shown)	–
182 to 184 °C	CN(C)CCc1c[nH]c2cccc(NS(=O)(=O)c3ccc(-c4ccccc4)cc3)c12	–
155 to 156 °C	CCOC(CN(CC)CC)c1c[nH]c2c(N(S(=O)(=O)c3sc4ccc(Cl)cc4c3C)S(=O)(=O)c3sc4ccc(Cl)cc4c3C)cccc12 (stereo not shown)	–
165 to 168 °C	CN(C)CCc1c[nH]c2cccc(NS(=O)(=O)c3ccc4ccccc4c3)c12	–
170 to 172 °C	CN(C)CCc1c[nH]c2cccc(NS(=O)(=O)CCc3cccc4ccccc34)c12 (as salt: TFA)	–
96 to 98 °C	CN(C)CCc1c[nH]c2cc(NS(=O)(=O)c3cc(Cl)cc(Cl)c3)ccc12	–
210 °C	CN(C)CCc1c[nH]c2cc(N(S(=O)(=O)c3c(Cl)nc4sccn34)S(=O)(=O)c3c(Cl)nc4sccn34)ccc12	–
103 to 107 °C	CN(C)CCc1c[nH]c2cc(N(S(=O)(=O)c3cc(Cl)cc(Cl)c3)S(=O)(=O)c3cc(Cl)cc(Cl)c3)ccc12	–
130 to 140 °C	Cc1c(S(=O)(=O)Nc2cccc3c(CCN(C)C)c[nH]c23)sc2ccc(Cl)cc12	–
170 to 171 °C	CN(C)CCc1c[nH]c2cc(NS(=O)(=O)c3ccc(Oc4ccccc4)cc3)ccc12	–

SMILES	melting point	Ki [1]
CN(C)CCc1c[nH]c2cc(NS(=O)(=O)c3ccc4ccccc4c3)ccc12 [Example 11, N-(3-(2-(dimethylamino)ethyl)-1H-indol-6-yl)naphthalene-2-sulfonamide]	150 to 151 °C	42.6 nM
CN(C)CCc1c[nH]c2cc(NS(=O)(=O)c3cccc4ccccc34)ccc12 [Example 12, N-(3-(2-(dimethylamino)ethyl)-1H-indol-6-yl)naphthalene-1-sulfonamide]	167 to 168 °C	31.1 nM
CCN(CC)CCc1c[nH]c2cc(NS(=O)(=O)c3c(Cl)nc4sccn34)ccc12 [Example 4, 6-chloro-N-(3-(2-(diethylamino)ethyl)-1H-indol-6-yl)imidazo[2,1-b]thiazole-5-sulfonamide]	210 to 212 °C	42.8 nM
CN(C)CCc1c[nH]c2cc(NS(=O)(=O)c3c(Cl)nc4sccn34)ccc12 [Example 13, 6-chloro-N-(3-(2-(dimethylamino)ethyl)-1H-indol-6-yl)imidazo[2,1-b]thiazole-5-sulfonamide]	138 to 142 °C	7.3 nM
